In publication PMC12596758 (Clinical pharmacology and therapeutics, 2025):
Where two headings read alike, the source gives them in different places. Blank lines part the entries; values can stand above or below the compound they belong to.

Tests used:
aldehyde oxidase, AO = settings: cited from earlier work
[1] = system: nicotinamide N-methyltransferase, NNMT; settings: cited from earlier work
OCT2 = settings: read-out: IC50 for OCT2; cited from earlier work
[2] = for relative plasma concentrations between study arms: targeted analysis, baseline vs cimetidine exposure
OCT1 [3] = settings: potent OCT1 inhibitor new chemical entity vs placebo, healthy adults; cited from earlier work
[4] = cited from earlier work
[5] = rats, cimetidine 100 mg/kg intraperitoneally; cited from earlier work
Oct1 [6] = settings: Oct1 knockout mice vs wild-type mice, single oral dose of metformin; cited from earlier work
[7] = excreted unchanged into urine; cited from earlier work
clinical = settings: both, human, po; for Cmax: plasma
[8] = pyrimethamine 75 mg, healthy adults; cited from earlier work
[9] = cimetidine 400 mg vs baseline, healthy adults
[10] = decrease with cimetidine 400 mg vs baseline, healthy adults
[11] = increase with cimetidine 400 mg vs baseline, healthy adults
[12] = cimetidine 400 mg vs baseline, healthy adults, listed as NMA

SMILES: CN/C(=N/CCSCc1nc[nH]c1C)NC#N [Cimetidine, cimetidine]
inhibition of AO activity (aldehyde oxidase, AO): does not inhibit
inhibition of NNMT activity [1]: does not inhibit
IC50 (OCT2): 23.6 to 207 µM

SMILES: CC(C)C(=O)O[C@H](CC(=O)[O-])C[N+](C)(C)C [Isobutyryl-L-carnitine, isobutyryl-L-carnitine]
AUC(0–4 h), effect of cimetidine exposure vs baseline (in words) [2, 9]: did not differ
AUC(0–24 h), effect of cimetidine exposure vs baseline (in words) [2, 9]: did not differ
Cmax, effect of cimetidine exposure vs baseline (in words) [2, 9]: did not differ
AUC(0–24 h) %Change (cimetidine exposure/baseline), decrease (↓) [2, 10]: 4% (↓)
Cmax %Change (cimetidine exposure/baseline), decrease (↓) [2, 10]: 6% (↓)
decrease in plasma exposure (OCT1 [3]): 35%

SMILES: CC(=O)OCC[N+](C)(C)C [acetylcholine]
relative plasma concentrations between study arms [2]: no significant differences

SMILES: C[N+](C)(C)CC(O)CC(=O)[O-] (stereo not drawn) [carnitine]
relative plasma concentrations between study arms [2]: no significant differences

SMILES: C[N+](C)(C)CC(=O)[O-] [glycine betaine]
relative plasma concentrations between study arms [2]: no significant differences

More lines, main results first:

higher AUC(0–24 h), group TT compared to heterozygous group TC ([2]; MATE1 c.−66T>C (rs2252281), baseline arm, p = 0.042): 1.42 fold
CLr,b %Change (cimetidine exposure/baseline), decrease (↓) [2, 10]: 17% (↓)
CLr,a %Change (cimetidine exposure/baseline), decrease (↓) ([2]; decrease with cimetidine 400 mg vs baseline, healthy adults, CLr based on 0–24 h): 8% (↓)
Renal OCT2 alone (AUC(0–24 h)) % Change Observed data, increase (↑) ([2]; from the observed CLr decrease): 8% (↑)
AUC(0–24 h) %Change (cimetidine exposure/baseline), increase (↑) [2, 11]: 24% (↑)
AUC(0–24 h) %Change (cimetidine exposure/baseline), increase (↑) ([2]; increase with cimetidine 400 mg vs baseline, healthy adults, listed as metformin): 24%
increase in Cmax with cimetidine treatment ([2]; individuals homozygous for OCT1 c.480G>C (p.Leu160Phe, rs683369), p = 0.006): 48%
increase in AUC(0–24 h) with cimetidine treatment ([2]; individuals homozygous for OCT1 c.480G>C (p.Leu160Phe, rs683369), p = 0.025): 33%
increase in AUC(0–24 h) with cimetidine ([2]; participants homozygous for OCT2 c.1506C>T (p.Val502=, rs316003), p = 0.022): 27%
reduction in CLr,a with cimetidine ([2]; participants homozygous for OCT2 c.518+32G>C (rs2774230) or c.1506C>T (rs316003)): 9%
increase in AUC(0–24 h) with cimetidine ([2]; participants homozygous for OCT2 c.518+32G>C (rs2774230), p = 0.013): 35%
Cmax (clinical): 168 ng/mL
Cmax (clinical; 50 mg): 124 ng/mL
SMILES: CN(C)C(=N)N=C(N)N [Metformin]
Ae(0–4 h) %Change (cimetidine exposure/baseline), increase (↑) [2, 11]: 4% (↑)
decrease in CLr ([4]; oral metformin 250–500 mg with cimetidine, healthy adults): 27–45%
reduction in metformin CLr ([4]; similar cimetidine dosing regimen (400 mg), not statistically significant, ref 26 (Koishikawa et al.)): 15%
increase in metformin blood concentrations [5]: 3.2 fold
reduction in CLr [5]: 73%
reduction of hepatic metformin concentration (Oct1 [6]): 3.4 fold
share of urinary excretion through glomerular filtration [7]: 25%
share of urinary excretion through renal secretion [7]: 75%

AUC(0–4 h), effect of cimetidine exposure vs baseline (in words) [2, 9]: comparable
AUC(0–24 h), effect of cimetidine exposure vs baseline (in words) [2, 9]: comparable
CLr,a, effect of cimetidine exposure vs baseline (in words) [2, 9]: No change
CLr,b, effect of cimetidine exposure vs baseline (in words) [2, 9]: comparable
Cmax, effect of cimetidine exposure vs baseline (in words) [2, 9]: No change
CLr,a, effect of cimetidine exposure vs baseline (in words) [2, 12]: comparable
Cmax, effect of cimetidine exposure vs baseline (in words) [2, 12]: comparable
AUC(0–4 h) %Change (cimetidine exposure/baseline), decrease (↓) [2, 10]: 5% (↓)
AUC(0–24 h) %Change (cimetidine exposure/baseline), decrease (↓) [2, 10]: 5% (↓)
CLr,b %Change (cimetidine exposure/baseline), increase (↑) [2, 11]: 53% (↑)
CL renal (clinical; plasma and urine): 68.3 mL/min
Cmax (clinical): 2.6 ng/mL
Cmax (clinical; 50 mg): 2.6 ng/mL
SMILES: Cn1cnc2c(ncn2[C@@H]2O[C@H](CO)[C@@H](O)[C@H]2O)c1=N [N1-Methyladenosine, N1-methyladenosine]
Ae(0–4 h), effect of cimetidine exposure vs baseline (in words) [2, 9]: comparable
Ae(0–24 h), effect of cimetidine exposure vs baseline (in words) [2, 9]: comparable
Ae(0–24 h) %Change (cimetidine exposure/baseline), decrease (↓) [2, 10]: 4% (↓)
Ae(0–4 h) %Change (cimetidine exposure/baseline), increase (↑) [2, 11]: 44% (↑)
reduction in CLr [8]: 47%

relative plasma concentrations between study arms [2]: no significant differences
SMILES: C[n+]1cccc(C(=O)O)c1 [N1-methyl nicotinic acid]

relative plasma concentrations between study arms [2]: no significant differences
SMILES: C[N+](C)(C)CCO [choline]

relative plasma concentrations between study arms [2]: no significant differences
SMILES: N[C@@H](Cc1c[nH]c2ccccc12)C(=O)O [tryptophan]
